Several values for one entry are separate records, joined by “and”; a condition that tells them apart may be missing. Equal values may be shown once. Values belong to the compound of their own block, whether it stands above or below them.
Columns and labels:
[1] = Lactose hydrolysis in the presence of Ca(OAc)2; conditions: 100° C.
Procedure: The glass vial was capped to prevent the solvent from evaporation, and reaction was carried out at 100° C. in an oil bath with 800 rpm stirring. 0.105 g (0.1 mL) of liquid sample solution was collected each day (every 18-26 h) for 5 days and diluted in 0.399 g (0.4 mL) of MQ water for the reaction kinetics analysis. The diluted sample was analyzed by HPLC. Experimentally measured rates at different concentrations of Ca(OAc)2 were analyzed by the kinetic model (Equations 1-4).
(§1) The chemical concentrations of hydrolyzed lactose solutions were quantified by high performance liquid chromatography (HPLC) analysis. The hydrolyzed solutions with immobilized catalysts were centrifuged (2500 rpm, 20 min) to separate the immobilized catalyst in the aqueous phase solution. 0.105 g (0.1 mL) of the aqueous solution was diluted in 0.399 g (0.4 mL) of Milli-Q water (5 times dilution by volume) to analyze the concentrations of lactose, glucose, galactose, and HMF as one of by-products by glucose degradation. […] The temperature of the HPLC column was maintained at 50° C., and the flow rate of the mobile phase (pH 2 water, acidified by sulfuric acid) was 0.6 mL/min.

[2] = Reaction kinetics analysis for lactose hydrolysis; conditions: 100° C.
Procedure: The glass vial was capped to prevent the solvent from evaporation, and the hydrolysis reaction was carried out at 100° C. in an oil bath (120 and 90° C. were used to measure activation energies) with 600-800 rpm stirring. […] 0.105 g (=0.1 mL) of liquid sample solution was collected at each day (every 18-26 h) for 5 days and diluted in 0.399 g (=0.4 mL) of MQ water for the reaction kinetics analysis, and the diluted sample was filtered by syringe filter (20 μm pore) and analyzed by HPLC.
as §1

[3] = at 100° C.; extrapolated; cited from earlier work
[4] = Active site analysis: rate constants for the active sites in lactose hydrolysis; conditions: 100° C.; for rate constant for the active site G1H (kG1H): homogeneous catalyst
Procedure: Addition of Ca(OAc)2 for the investigation of catalytic active sites: The rate constants for H^+ and non-dissociated carboxylic acid from the acid catalysts were determined by combining results from separate reaction kinetics experiments. […] In the presence of different amounts of Ca(OAc)2, the predicted rates can be calculated by using a linear combination of the rate constants and the concentrations of corresponding active sites (equation in FIG. 1C). […] The kG1H value for each biomimetic catalyst was then used to calculate the turnover frequency (TOF=kG1H·[Lactose]0) for comparison of catalytic activities from the engineered biomimetic catalysts in FIG. 2A. […] This analysis accounts for the contributions from the catalytic activity of H^+ (pH effect) and the catalytic activity of the active site (G1H).

[5] = Solubility of the organocatalyst in water; type: physicochemical; conditions: in water at 100° C.; read-out: solubility limit
Text: Immobilization of the organocatalyst on a solid support material can prevent catalyst precipitation by distributing the organocatalyst on the surface of the support. […] Catalytic reaction over the immobilized organocatalyst is analogous to the mechanism of enzymatic reactions. For instance, an organocatalyst complex on a well-defined support with controlled surface properties can act in an analogous fashion as an active site in the channel of an enzyme. Reactants bind on the G1H sites by the interaction between surface functionality on the support and the organocatalyst. Lower loading of catalyst on a support enhances the catalytic activity (FIGS. 16A and 1D) by forming a more uniform distribution of the complex on the support.

[6] = homogeneous (non-immobilized) catalyst, amino acids 82-84 mM, 95% confidential intervals

Compound: N[C@@H](CCC(=O)O)C(=O)O [glutamic acid, L-glutamic acid]
Rate of lactose hydrolysis ([1]; [Ca(OAc)2] 24 mM): 0.0005 M/h
kapp, apparent rate constant for lactose hydrolysis ([1]; [Ca(OAc)2] 24 mM): 0.0011 ± 0.0001 h⁻¹
Rate of lactose hydrolysis ([1]; [Ca(OAc)2]=0 mM): 0.0026 M/h
kapp, apparent rate constant for lactose hydrolysis ([1]; [Ca(OAc)2]=0 mM): 0.0060 ± 0.0004 h⁻¹
Rate of lactose hydrolysis ([1]; [Ca(OAc)2]=5 mM): 0.0016 M/h
kapp, apparent rate constant for lactose hydrolysis ([1]; [Ca(OAc)2]=5 mM): 0.0037 ± 0.0002 h⁻¹
Rate of lactose hydrolysis ([1]; [Ca(OAc)2]=16 mM): 0.0007 M/h
kapp, apparent rate constant for lactose hydrolysis ([1]; [Ca(OAc)2]=16 mM): 0.0016 ± 0.0001 h⁻¹
kapp, apparent rate constant for lactose hydrolysis [2, 6]: 0.0060 ± 0.0004 h⁻¹
pKa,G1H (α-carboxylic acid) [3]: 2.24
pKa,G2H (side-chain carboxylic acid) [3]: 4.55
pKa,GNH (amine) [3]: 9.12
rate constant for the active site G1H (kG1H) [4]: 0.00029567 M⁻¹ s⁻¹ and 0.000294 M⁻¹ s⁻¹

Compound: CC(=O)O [acetic acid]
kapp, apparent rate constant for lactose hydrolysis [2, 6]: 0.0015 ± 0.0001 h⁻¹
rate constant for the non-dissociated acetic acid (kAA) ([4]; kapp=kH+·[H^+]+kAA·[AA]): 1.42e-06 M⁻¹ s⁻¹

Compound: O=S(=O)(O)O [sulfuric acid]
kapp, apparent rate constant for lactose hydrolysis [2, 6]: 0.1615 ± 0.0075 h⁻¹
kd,app, apparent rate constant for glucose degradation [2, 6]: 1.08e-06 ± 5.42e-06 s⁻¹

suppression of kd,app/kapp compared to glutamic acid [2]: 55.2%
kd,app, apparent rate constant for glucose degradation [2, 6]: 6.11e-07 ± 2.2e-07 s⁻¹
Compound: O=C(O)CCC(C(=O)O)N1C(=O)CCC1=O (centres unmarked) [GA-MAL-H]
kapp, apparent rate constant for lactose hydrolysis [2, 6]: 0.0077 ± 0.0002 h⁻¹
higher kG1H than kG1H for glutamic acid [4]: 31.9%
rate constant for the active site G1H (kG1H) [4]: 0.000389 M⁻¹ s⁻¹

Compound: [H+] [H^+]
rate constant for H^+ (kH+) ([4]; kapp=kH+·[H^+]): 0.0002639 M⁻¹ s⁻¹

kd,app, apparent rate constant for glucose degradation ([2]; 37 mM homogeneous catalyst): 4.44e-07 ± 1.4e-07 s⁻¹
kd,app, apparent rate constant for glucose degradation ([2]; 70 mM homogeneous catalyst): 2.78e-07 ± 1.7e-07 s⁻¹
kd,app, apparent rate constant for glucose degradation [2, 6]: 4.44e-07 ± 1.4e-07 s⁻¹
solubility [5]: ~37000 µM and ~27000 µg/mL
Compound: O=C(O)CCC(C(=O)O)N1C(=O)C2C(C1=O)C1(CCC(=O)CCC34CCC(CO)(O3)C3C(=O)N(C(CCC(=O)O)C(=O)O)C(=O)C34)CCC2(CO)O1 (centres unmarked) [PHAH-GA-MAL-H]
kapp, apparent rate constant for lactose hydrolysis ([2]; 37 mM homogeneous catalyst): 0.0117 ± 0.0004 h⁻¹
kapp, apparent rate constant for lactose hydrolysis ([2]; 70 mM homogeneous catalyst): 0.0103±0.0004 h^−
kapp, apparent rate constant for lactose hydrolysis [2, 6]: 0.0117 ± 0.0004 h⁻¹
higher kG1H than GA-MAL-H [4]: 74.2%
kG1H relative to glutamic acid [4]: 2.3 times
rate constant for the active site G1H (kG1H) [4]: 0.000681 M⁻¹ s⁻¹

kd,app, apparent rate constant for glucose degradation [2, 6]: 1.4e-07 ± 3.22e-06 s⁻¹
Compound: N[C@@H](Cc1ccc(O)cc1)C(=O)O [tyrosine, L-tyrosine]
kapp, apparent rate constant for lactose hydrolysis [2, 6]: 0.0004 ± 0.0001 h⁻¹

Reference: patent US20240131499A1, “BIOMIMETIC CATALYSTS FOR DIVERSE INDUSTRIAL APPLICATIONS IN CHEMICAL REACTIONS” (Wisconsin Alumni Research Foundation, priority 2022, published 2024)
